Laboratory results from ChEMBL document CHEMBL5113433, “Biological evaluation for anti-inflammatory effect of africane-type sesquiterpenoids” (Bioorg Med Chem, 2022).
Calls of active or inactive are those of the source. No cut-off for these calls is given here.

Tests used:
RAW264.7 [1] = assay: Antiinflammatory activity in LPS-induced mouse RAW264.7 cells assessed as decrease in COX-2 expression at 10 uM pretreated for 2 hrs followed by stimulation with LPS for 22 hrs by Western blot analysis; type: functional, cell-based; conditions: time 24.0 hrs
RAW264.7 [2] = assay: Antiinflammatory activity in LPS-induced mouse RAW264.7 cells assessed as decrease in IL-6 expression at 6 uM pretreated for 2 hrs followed by stimulation with LPS for 6 hrs by Western blot analysis; type: functional, cell-based; conditions: time 8.0 hrs
RAW264.7 [3] = assay: Antiinflammatory activity in LPS-induced mouse RAW264.7 cells assessed as decrease in COX-2 expression pretreated for 2 hrs followed by stimulation with LPS for 22 hrs by Western blot analysis; type: functional, cell-based
[4] = Cytotoxicity against mouse RAW264.7 cells assessed as cell viability after 24 hrs by MTT assay; type: toxicity, cell-based
RAW264.7 [5] = assay: Antiinflammatory activity in LPS-induced mouse RAW264.7 cells assessed as decrease in IL-6 expression at 6 uM pretreated for 2 hrs followed by stimulation with LPS for 6 hrs by RT-PCR analysis; type: functional, cell-based
RAW264.7 [6] = assay: Antiinflammatory activity in LPS-induced mouse RAW264.7 cells assessed as decrease in IL-1beta expression at 6 uM pretreated for 2 hrs followed by stimulation with LPS for 6 hrs by Western blot analysis; type: functional, cell-based
RAW264.7 [7] = assay: Antiinflammatory activity in LPS-induced mouse RAW264.7 cells assessed as decrease in IL-1beta expression at 6 uM pretreated for 2 hrs followed by stimulation with LPS for 6 hrs by RT-PCR analysis; type: functional, cell-based

With `CC(=O)OC[C@]1(O)CC[C@@H]2[C@@H]1CC(C)(C)C[C@H]1C[C@]12C` the Activity (RAW264.7 [1]) was “Active”.

In the case of `CC(=O)OC[C@@]1(O)CC[C@@H]2[C@@H]1CC(C)(C)C[C@H]1C[C@]12C`, the Activity (RAW264.7 [2]) is reported as “Active”, the IC50 (RAW264.7 [3]; Mus musculus, RAW264.7) is reported as 4.61 µM and the IC50 at 24 h [4] is reported as greater than 10 µM. The Activity (RAW264.7 [5]) was “Active”, the Activity (RAW264.7 [1]) was “Active” and the Activity (RAW264.7 [6]) was “Active”. The Activity (RAW264.7 [7]) was “Active”.

For `CC(=O)OCC1(O)CCC2C1CC(C)(C)CC1CC12C` (single isomer, unassigned; (+)) [listing 1 of 2 here], the Activity (RAW264.7 [2]) was “Active”, the Activity (RAW264.7 [5]) was “Active” and the Activity (RAW264.7 [1]) was “Active”. The Activity (RAW264.7 [6]) was “Active” and the Activity (RAW264.7 [7]) was “Active”.

With `CC(=O)OCC1(O)CCC2C1CC(C)(C)CC1CC12C` (single isomer, unassigned; (-)) [listing 1 of 2 here] the Activity (RAW264.7 [2]) was “Active”, the Activity (RAW264.7 [5]) was “Active” and the Activity (RAW264.7 [1]) was “Active”. For the same compound, the Activity (RAW264.7 [6]) was “Active” and the Activity (RAW264.7 [7]) was “Active”.

`CC(=O)OCC1(O)CCC2C1CC(C)(C)CC1CC12C` (single isomer, unassigned; (+)) [listing 2 of 2 here] showed an IC50 (RAW264.7 [3]; Mus musculus, RAW264.7) of 6.64 µM and an IC50 at 24 h [4] greater than 10 µM.

In the case of `CC(=O)OCC1(O)CCC2C1CC(C)(C)CC1CC12C` (single isomer, unassigned; (-)) [listing 2 of 2 here], the IC50 (RAW264.7 [3]; raw264.7) is reported as 8.18 µM.

With `C=CCC(C)(C)C[C@@H]1C(=O)CC[C@H]1C(=C)C` the Activity (RAW264.7 [2]) was “Active”, the IC50 (RAW264.7 [3]; Mus musculus, RAW264.7) was 8.17 µM and the IC50 at 24 h [4] was greater than 10 µM. The Activity (RAW264.7 [5]) was “Active”, the Activity (RAW264.7 [1]) was “Active” and the Activity (RAW264.7 [6]) was “Active”. The Activity (RAW264.7 [7]) was “Active”.
